Assay results as given in ChEMBL document CHEMBL3870316, “Design, synthesis and structure-activity relationships of novel 4-phenoxyquinoline derivatives containing 1,2,4-triazolone moiety as c-Met kinase inhibitors” (Eur J Med Chem, 2016).

Assays:
[1] = organism: Homo sapiens; assay: Selectivity ratio of IC50 for VEGFR2 (unknown origin) to IC50 for c-MET (unknown origin)
[2] = molecular target: Epidermal growth factor receptor (Homo sapiens, UniProt P00533); assay: Inhibition of EGFR (unknown origin) after 30 mins by HTRF assay
Sequence of Epidermal growth factor receptor (P00533 whole entry): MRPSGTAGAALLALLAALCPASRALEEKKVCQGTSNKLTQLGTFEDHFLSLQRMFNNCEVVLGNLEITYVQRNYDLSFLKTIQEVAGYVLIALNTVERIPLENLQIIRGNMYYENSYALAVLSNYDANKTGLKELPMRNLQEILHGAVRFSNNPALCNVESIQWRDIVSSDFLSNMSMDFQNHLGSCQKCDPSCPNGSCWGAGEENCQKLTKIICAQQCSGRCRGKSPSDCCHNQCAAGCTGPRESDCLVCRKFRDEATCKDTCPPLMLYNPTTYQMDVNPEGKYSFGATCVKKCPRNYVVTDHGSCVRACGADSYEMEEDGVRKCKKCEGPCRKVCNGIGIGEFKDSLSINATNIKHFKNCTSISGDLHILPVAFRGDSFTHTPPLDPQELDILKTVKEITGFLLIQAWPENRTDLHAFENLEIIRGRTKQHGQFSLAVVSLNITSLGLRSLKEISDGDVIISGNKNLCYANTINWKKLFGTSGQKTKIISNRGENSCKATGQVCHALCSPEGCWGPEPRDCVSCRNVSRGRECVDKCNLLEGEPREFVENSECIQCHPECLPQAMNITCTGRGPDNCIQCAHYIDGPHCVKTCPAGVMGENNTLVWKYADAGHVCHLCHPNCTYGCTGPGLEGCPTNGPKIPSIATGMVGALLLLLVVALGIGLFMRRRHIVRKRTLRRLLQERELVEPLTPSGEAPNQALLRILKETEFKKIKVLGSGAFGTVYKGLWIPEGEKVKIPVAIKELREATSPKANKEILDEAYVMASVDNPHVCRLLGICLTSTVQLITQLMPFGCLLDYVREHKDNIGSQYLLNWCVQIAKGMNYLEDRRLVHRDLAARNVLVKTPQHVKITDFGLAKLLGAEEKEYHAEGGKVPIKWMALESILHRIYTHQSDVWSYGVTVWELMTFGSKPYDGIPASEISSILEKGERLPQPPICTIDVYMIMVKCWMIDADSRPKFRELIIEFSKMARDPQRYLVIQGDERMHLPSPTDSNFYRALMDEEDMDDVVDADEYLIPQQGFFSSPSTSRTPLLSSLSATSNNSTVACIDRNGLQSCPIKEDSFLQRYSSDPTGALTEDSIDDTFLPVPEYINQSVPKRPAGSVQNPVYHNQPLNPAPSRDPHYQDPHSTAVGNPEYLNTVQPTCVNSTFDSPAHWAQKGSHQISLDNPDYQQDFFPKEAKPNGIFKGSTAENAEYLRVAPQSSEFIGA

[3] = molecular target: Macrophage-stimulating protein receptor (Homo sapiens, UniProt Q04912); assay: Inhibition of Ron (unknown origin) after 30 mins by HTRF assay
Sequence of Macrophage-stimulating protein receptor (Q04912 25-304 limits assumed): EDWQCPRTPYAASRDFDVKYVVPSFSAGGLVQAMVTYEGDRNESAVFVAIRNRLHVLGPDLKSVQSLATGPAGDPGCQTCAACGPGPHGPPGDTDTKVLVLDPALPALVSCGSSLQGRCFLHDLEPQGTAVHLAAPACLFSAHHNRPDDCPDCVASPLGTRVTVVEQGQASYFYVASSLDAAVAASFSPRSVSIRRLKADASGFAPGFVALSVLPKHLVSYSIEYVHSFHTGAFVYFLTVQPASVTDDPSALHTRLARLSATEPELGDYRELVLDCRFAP
Sequence of Macrophage-stimulating protein receptor (Q04912 310-1400 limits assumed): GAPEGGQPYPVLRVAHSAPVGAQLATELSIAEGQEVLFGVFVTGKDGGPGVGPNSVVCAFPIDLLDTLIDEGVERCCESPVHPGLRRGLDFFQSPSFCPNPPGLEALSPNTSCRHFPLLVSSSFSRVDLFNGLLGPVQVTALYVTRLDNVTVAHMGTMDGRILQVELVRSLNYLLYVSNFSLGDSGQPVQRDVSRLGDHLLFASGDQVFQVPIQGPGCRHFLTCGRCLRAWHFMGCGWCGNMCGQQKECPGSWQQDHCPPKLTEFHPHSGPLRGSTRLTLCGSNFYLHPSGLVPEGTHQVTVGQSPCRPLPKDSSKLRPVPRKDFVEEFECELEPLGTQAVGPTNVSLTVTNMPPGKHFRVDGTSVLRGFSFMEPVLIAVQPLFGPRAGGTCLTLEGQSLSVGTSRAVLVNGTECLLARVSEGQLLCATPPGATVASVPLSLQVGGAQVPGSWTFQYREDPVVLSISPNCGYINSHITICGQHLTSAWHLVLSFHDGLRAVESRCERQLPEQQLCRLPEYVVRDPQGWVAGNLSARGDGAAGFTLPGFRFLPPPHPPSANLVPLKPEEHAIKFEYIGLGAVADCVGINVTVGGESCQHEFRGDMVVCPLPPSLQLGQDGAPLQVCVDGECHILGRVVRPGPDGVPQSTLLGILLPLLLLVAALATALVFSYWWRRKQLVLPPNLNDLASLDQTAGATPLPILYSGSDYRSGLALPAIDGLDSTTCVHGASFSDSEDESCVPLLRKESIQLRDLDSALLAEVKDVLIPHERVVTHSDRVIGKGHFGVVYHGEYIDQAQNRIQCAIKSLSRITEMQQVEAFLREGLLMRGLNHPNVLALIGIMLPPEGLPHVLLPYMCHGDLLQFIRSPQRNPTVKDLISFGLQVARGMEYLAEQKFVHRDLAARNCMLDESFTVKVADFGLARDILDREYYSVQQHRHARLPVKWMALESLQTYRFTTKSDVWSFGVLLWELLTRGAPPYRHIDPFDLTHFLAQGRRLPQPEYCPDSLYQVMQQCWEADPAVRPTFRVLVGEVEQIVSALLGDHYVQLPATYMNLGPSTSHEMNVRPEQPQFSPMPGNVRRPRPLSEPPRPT

[4] = Cytotoxicity against c-Met over-expressed human HT-29 cells assessed as cell growth inhibition after 72 hrs by MTT assay; conditions: HT-29, 72 h
[5] = Potency index, ratio of foretinib IC50 to compound IC50 for human H460 cells; assay type: functional
[6] = molecular target: Platelet-derived growth factor receptor alpha (Homo sapiens, UniProt P16234); assay: Inhibition of PDGFRalpha (unknown origin) after 30 mins by HTRF assay
Sequence of Platelet-derived growth factor receptor alpha (P16234 whole entry): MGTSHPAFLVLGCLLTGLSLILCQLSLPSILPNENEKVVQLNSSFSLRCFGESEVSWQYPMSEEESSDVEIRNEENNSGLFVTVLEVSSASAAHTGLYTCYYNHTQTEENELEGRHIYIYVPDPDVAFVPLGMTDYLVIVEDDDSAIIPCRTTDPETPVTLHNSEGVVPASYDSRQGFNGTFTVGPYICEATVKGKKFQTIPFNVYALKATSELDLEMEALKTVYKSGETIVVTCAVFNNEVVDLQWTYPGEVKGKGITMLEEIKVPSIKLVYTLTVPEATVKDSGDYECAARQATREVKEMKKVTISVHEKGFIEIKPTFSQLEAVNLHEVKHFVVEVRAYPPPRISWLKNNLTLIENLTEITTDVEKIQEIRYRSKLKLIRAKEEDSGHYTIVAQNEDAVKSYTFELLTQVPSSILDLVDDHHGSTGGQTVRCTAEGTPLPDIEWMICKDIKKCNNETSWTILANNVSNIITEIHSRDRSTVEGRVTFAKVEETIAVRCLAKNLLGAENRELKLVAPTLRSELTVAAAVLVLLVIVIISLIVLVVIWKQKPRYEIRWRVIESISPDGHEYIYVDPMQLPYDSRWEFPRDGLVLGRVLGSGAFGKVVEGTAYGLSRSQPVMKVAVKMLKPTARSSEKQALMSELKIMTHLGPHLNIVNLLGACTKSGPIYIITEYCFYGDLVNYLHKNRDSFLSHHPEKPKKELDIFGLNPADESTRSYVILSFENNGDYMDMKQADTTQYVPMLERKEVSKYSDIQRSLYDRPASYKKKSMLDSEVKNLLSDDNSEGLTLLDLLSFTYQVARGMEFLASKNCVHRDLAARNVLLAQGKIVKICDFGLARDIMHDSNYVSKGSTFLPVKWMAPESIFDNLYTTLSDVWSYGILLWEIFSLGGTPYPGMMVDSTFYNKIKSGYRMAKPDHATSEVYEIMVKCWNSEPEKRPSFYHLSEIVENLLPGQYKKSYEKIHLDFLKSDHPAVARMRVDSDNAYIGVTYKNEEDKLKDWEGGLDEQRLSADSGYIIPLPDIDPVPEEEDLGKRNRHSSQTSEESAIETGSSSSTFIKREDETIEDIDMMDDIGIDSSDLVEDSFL

[7] = test system: A549; assay: Potency index, ratio of foretinib IC50 to compound IC50 for human A549 cells; assay type: functional
[8] = molecular target: T1, Receptor-type tyrosine-protein kinase FLT3 (Homo sapiens, UniProt P36888); assay: Inhibition of FLT3 (unknown origin) after 30 mins by HTRF assay
T1 sequence (P36888 whole entry): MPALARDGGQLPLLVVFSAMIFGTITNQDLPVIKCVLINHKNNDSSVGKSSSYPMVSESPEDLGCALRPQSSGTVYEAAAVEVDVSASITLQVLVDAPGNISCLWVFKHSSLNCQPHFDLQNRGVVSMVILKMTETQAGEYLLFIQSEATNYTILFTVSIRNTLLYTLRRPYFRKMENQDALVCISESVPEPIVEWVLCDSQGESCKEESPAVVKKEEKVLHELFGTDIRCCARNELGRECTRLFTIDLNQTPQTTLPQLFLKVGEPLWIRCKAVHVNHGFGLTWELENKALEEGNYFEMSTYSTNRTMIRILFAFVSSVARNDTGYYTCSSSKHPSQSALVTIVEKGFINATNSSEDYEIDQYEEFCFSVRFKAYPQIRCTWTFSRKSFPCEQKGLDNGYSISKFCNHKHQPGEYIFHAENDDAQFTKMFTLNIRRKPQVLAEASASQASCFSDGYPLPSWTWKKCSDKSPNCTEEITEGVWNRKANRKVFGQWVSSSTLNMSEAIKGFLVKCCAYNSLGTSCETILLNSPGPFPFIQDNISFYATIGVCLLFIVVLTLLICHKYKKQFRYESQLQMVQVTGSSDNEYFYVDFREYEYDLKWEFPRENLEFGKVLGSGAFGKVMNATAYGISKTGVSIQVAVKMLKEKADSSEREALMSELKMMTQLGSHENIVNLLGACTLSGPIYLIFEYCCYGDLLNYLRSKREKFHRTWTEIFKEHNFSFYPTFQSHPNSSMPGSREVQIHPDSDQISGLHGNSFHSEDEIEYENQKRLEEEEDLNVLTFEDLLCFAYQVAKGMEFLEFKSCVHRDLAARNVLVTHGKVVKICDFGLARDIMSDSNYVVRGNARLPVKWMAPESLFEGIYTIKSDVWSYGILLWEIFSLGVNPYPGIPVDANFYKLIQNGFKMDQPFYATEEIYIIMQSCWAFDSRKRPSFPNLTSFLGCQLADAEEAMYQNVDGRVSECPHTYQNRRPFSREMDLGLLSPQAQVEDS

[9] = test system: HT-29; assay: Potency index, ratio of foretinib IC50 to compound IC50 for human HT-29 cells; assay type: functional
[10] = test system: MKN-45; assay: Potency index, ratio of foretinib IC50 to compound IC50 for human MKN45 cells; assay type: functional
[11] = Cytotoxicity against c-Met over-expressed human A549 cells assessed as cell growth inhibition after 72 hrs by MTT assay; conditions: A549, 72 h
[12] = Cytotoxicity against c-Met over-expressed human MKN45 cells assessed as cell growth inhibition after 72 hrs by MTT assay; conditions: MKN-45, 72 h
[13] = Cytotoxicity against c-Met over-expressed human H460 cells assessed as cell growth inhibition after 72 hrs by MTT assay; conditions: NCI-H460, 72 h
[14] = molecular target: Mast/stem cell growth factor receptor Kit (Homo sapiens, UniProt P10721); assay: Inhibition of c-Kit (unknown origin) after 30 mins by HTRF assay
Sequence of Mast/stem cell growth factor receptor Kit (P10721 whole entry): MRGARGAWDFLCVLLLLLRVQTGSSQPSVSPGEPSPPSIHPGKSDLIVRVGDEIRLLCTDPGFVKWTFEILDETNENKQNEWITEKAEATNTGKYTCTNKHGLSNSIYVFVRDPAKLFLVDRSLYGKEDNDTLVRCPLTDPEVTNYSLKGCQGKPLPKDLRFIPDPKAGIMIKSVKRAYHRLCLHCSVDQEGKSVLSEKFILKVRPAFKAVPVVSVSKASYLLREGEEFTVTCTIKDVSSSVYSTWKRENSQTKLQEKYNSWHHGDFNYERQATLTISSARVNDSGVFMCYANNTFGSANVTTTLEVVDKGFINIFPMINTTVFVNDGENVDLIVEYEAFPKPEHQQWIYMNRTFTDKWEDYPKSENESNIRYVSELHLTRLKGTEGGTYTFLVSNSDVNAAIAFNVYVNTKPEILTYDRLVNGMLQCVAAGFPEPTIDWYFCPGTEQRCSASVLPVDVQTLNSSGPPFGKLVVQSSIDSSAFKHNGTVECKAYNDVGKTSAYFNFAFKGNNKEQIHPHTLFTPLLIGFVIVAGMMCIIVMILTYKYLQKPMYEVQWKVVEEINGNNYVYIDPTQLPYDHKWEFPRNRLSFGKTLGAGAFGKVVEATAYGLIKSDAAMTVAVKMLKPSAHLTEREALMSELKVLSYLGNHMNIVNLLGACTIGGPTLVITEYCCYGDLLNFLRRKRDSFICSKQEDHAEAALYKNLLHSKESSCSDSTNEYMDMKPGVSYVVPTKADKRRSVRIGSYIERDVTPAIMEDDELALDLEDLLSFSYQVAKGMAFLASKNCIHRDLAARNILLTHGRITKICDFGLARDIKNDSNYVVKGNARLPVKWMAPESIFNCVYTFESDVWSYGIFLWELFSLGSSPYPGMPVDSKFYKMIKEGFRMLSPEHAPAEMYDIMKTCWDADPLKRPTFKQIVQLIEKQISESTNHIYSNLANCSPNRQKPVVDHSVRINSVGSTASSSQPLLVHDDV

[15] = molecular target: Hepatocyte growth factor receptor (Homo sapiens, UniProt P08581); assay: Inhibition of c-MET (unknown origin) using poly(Glu, Tyr)4:1 as substrate after 30 mins by HTRF assay
[16] = molecular target: Vascular endothelial growth factor receptor 2 (Homo sapiens, UniProt P35968); assay: Inhibition of VEGFR2 (unknown origin) after 30 mins by HTRF assay

Row | Structure (SMILES) | Ratio IC50 [1] | IC50 [4] | IC50 [11] | IC50 [12] | IC50 [13] | also measured
1 | COc1cc2c(Oc3ccc(NC(=O)c4cn(-c5ccccc5Cl)nn4)cc3F)ccnc2cc1OCCCN1CCCCC1 | 53 |  |  |  |  | 
2 | COc1cc2c(Oc3ccc(NC(=O)c4nn(-c5ccccc5F)c(=O)n4C)cc3F)ccnc2cc1OCCCN1CCN(C)CC1 | 306 | 80 nM | 110 nM | 30 nM | 140 nM | IC50 [2]: > 10000 nM; IC50 [3]: 141 nM; Ratio IC50 [5]: 1.1 - 2.3; IC50 [6]: 95.2 nM; Ratio IC50 [7]: 1.1 - 2.3; IC50 [8]: 8.19 nM; Ratio IC50 [9]: 1.1 - 2.3; Ratio IC50 [10]: 1.1 - 2.3; IC50 [14]: 3.38 nM; IC50 [15]: 1.57 nM; IC50 [16]: 480 nM
3 | COc1cc2c(Oc3ccc(NC(=O)c4nn(-c5ccccc5)c(=O)n4C)cc3F)ccnc2cc1OCCCN1CCOCC1 |  | 1460 nM | 700 nM | 950 nM | 1700 nM | 
4 | COc1cc2c(Oc3ccc(NC(=O)c4nn(-c5ccccc5OC(F)(F)F)c(=O)n4C4CC4)cc3F)ccnc2cc1OCCCN1CCC(C)CC1 |  | 110 nM | 120 nM | 100 nM | 240 nM | 
5 | COc1cc2c(Oc3ccc(N/C=C4\C(=O)N(c5ccccc5C(F)(F)F)N=C4C)cc3F)ccnc2cc1OCCCN1CCOCC1 | 172 |  |  |  |  | 
6 | COc1cc2c(Oc3ccc(NC(=O)c4nn(-c5ccc(OC(F)F)cc5)c(=O)n4C)cc3F)ccnc2cc1OCCCN1CCC(C)CC1 |  | 190 nM | 120 nM | 220 nM | 250 nM | 
7 | COc1cc2c(Oc3ccc(NC(=O)c4nn(-c5c(C)cccc5C)c(=O)n4C)cc3F)ccnc2cc1OCCCN1CCC(C)CC1 |  | 2680 nM | 4550 nM | 2230 nM | 3220 nM | 
8 | COc1ccc(-n2nc(C(=O)Nc3ccc(Oc4ccnc5cc(OCCCN6CCC(C)CC6)c(OC)cc45)c(F)c3)n(C)c2=O)cc1 |  | 1430 nM | 620 nM | 590 nM | 2400 nM | 
9 | CCn1c(C(=O)Nc2ccc(Oc3ccnc4cc(OCCCN5CCN(C)CC5)c(OC)cc34)c(F)c2)nn(-c2ccccc2OC(F)(F)F)c1=O |  | 150 nM | 200 nM | 57 nM | 250 nM | 
